For four compounds, Kd, Km and kcat results are on record in article PMC10978996 (Nature Communications, 2024).

Data set [1] addresses T1, PsiM (Psilocybe cubensis, UniProt P0DPA9).
T1 construct: full length, E. coli; Crystals: pJF45, His6 cut off by thrombin, vector-derived TEV site kept at N-terminus; Wild-type ITC and activity: His6-tagged without thrombin/TEV sites (pFB13); N247M: made from pJF45 template in pET-28a
Briefly: isothermal titration calorimetry. Format: binding. A general note: Isothermal titration calorimetry measures the heat released or taken up as one component is titrated into another.

Data set [2] relates to CNCCc1c[nH]c2cccc(OP(=O)(O)O)c12. Briefly: UHPLC-MS methyltransferase assay, Michaelis-Menten. Conditions: 1 mM SAM, 50 mM Tris pH 8.4, 28 °C, second methyl transfer. The data set is classed as biochemical, Psilocybe cubensis.
Data set [3] addresses T1, PsiM. Put plainly: UHPLC-MS methyltransferase assay, Michaelis-Menten. Format: biochemical. The settings on record: 1 mM SAM, 50 mM Tris pH 8.4, 28 °C; first methyl transfer.

In general, Kd refers to the concentration at which binding is half-saturated. Lower therefore signals tighter binding. Usually Km stands for the substrate concentration at which the rate is half of its maximum. In general, kcat refers to the maximal rate divided by the concentration of active sites.

Compound `Nc1ncnc2c1ncn2[C@@H]1O[C@H](CSCC[C@H](N)C(=O)O)[C@@H](O)[C@H]1O` [SAH] displayed a dissociation constant (Kd) on PsiM [1] of 66 ± 49 µM.

Compound `CNCCc1c[nH]c2cccc(OP(=O)(O)O)c12` [baeocystin] yielded an equilibrium dissociation constant (Kd) on PsiM [1] of 77.2 ± 3.5 µM.

For PsiM (Psilocybe cubensis), in data set [2], the Km was 492 ± 154 µM and the kcat was 0.001 ± 0.00017 s⁻¹.

`NCCc1c[nH]c2cccc(OP(=O)(O)O)c12` [norbaeocystin] yielded a Kd at PsiM [1] of 35.7 ± 5.4 µM. For the same compound, the Michaelis constant (Km) at PsiM [3] is 575 ± 100 µM.
